Reference: patent US6376518B1, “Acyl derivatives of 4-demethylpenclomedine, use thereof and preparation thereof” (Southern Research Institute, priority 1999, dated 2002)
Like-named read-outs stand apart in the source and are kept apart here.

Legend:
human MX-1 mammary tumor [1] = test: In vivo antitumor activity vs s.c.-implanted human MX-1 mammary tumor xenograft in athymic mice; conditions: sc MX-1
human MX-1 mammary tumor [2] = test: In vivo antitumor activity vs i.c.-implanted human MX-1 mammary tumor xenograft in athymic mice; conditions: ic MX-1, Days 1-5
[3] = tested on: ZR-75-1 human mammary tumor; test: In vivo antitumor activity vs sc ZR-75-1 xenograft; conditions: for Tumor-Free-Surv/Total: sc ZR-75-1
MCF7 human mammary tumor = test: In vivo antitumor activity vs sc MCF7 xenograft
[4] = tested on: UISO-BCA-1 human mammary tumor; test: In vivo antitumor activity vs sc UISO-BCA-1 xenograft; conditions: IP 90 mg/kg/dose, Days 16-20
HT29 human colon tumor = test: In vivo antitumor activity vs sc HT29 xenograft
[5] = tested on: NCI-H82 small cell lung tumor; test: In vivo antitumor activity vs sc NCI-H82 xenograft; set-up: species or system human
[6] = tested on: NCI-H460 nonsmall cell lung tumor; test: In vivo antitumor activity vs sc NCI-H460 xenograft; set-up: species or system human; conditions: IP 90 mg/kg/dose, Days 6-10
U251 human CNS tumor = test: In vivo antitumor activity vs sc U251 xenograft
SF-295 CNS tumor = test: In vivo antitumor activity vs sc SF-295 xenograft; set-up: species or system human; conditions: IP 90 mg/kg/dose, Days 9-13
CAKI-1 human renal tumor = test: In vivo antitumor activity vs sc CAKI-1 xenograft
OVCAR-5 ovarian tumor = test: In vivo antitumor activity vs sc OVCAR-5 xenograft; set-up: species or system human; conditions: IP 90 mg/kg/dose, Days 12-16
SK-MEL-28 melanoma = test: In vivo antitumor activity vs sc SK-MEL-28 xenograft; set-up: species or system human; conditions: IP 90 mg/kg/dose, Days 8-12
P388/CPA leukemia = test: Antitumor activity against IP-implanted P388/CPA leukemia in mice; format: in vivo, murine; conditions: for 50-DAY SURV/TOTAL / % ILS / APPROX. NET LOG10 CHANGE IN TUMOR BURDEN AT END OF Rx / MEDIAN DAY OF DEATH: P388/CPA, Q1D × 5 (1); for MEDIAN DAY OF DEATH: dying mice only
P388/L-PAM leukemia = conditions: for MEDIAN DAY OF DEATH: dying mice only
P388/BCNU leukemia = test: Antitumor activity against IP-implanted P388/BCNU leukemia in mice; conditions: for MEDIAN DAY OF DEATH: dying mice only
[7] = sc MCF7, IP 60 mg/kg/dose, Days 14-18
[8] = sc HT29, IP 90 mg/kg/dose, Days 14-18
[9] = sc NCI-H82, IP 60 mg/kg/dose, Days 13-17
[10] = sc CAKI-1, IP 90 mg/kg/dose, Days 19-23
[11] = highest nontoxic doses evaluated, versus DM-PEN
[12] = highest nontoxic doses evaluated, versus PEN
[13] = P388/0, IP 60.0 mg/kg/dose, Q1D × 5 (1)
[14] = P388/0, IP 90.0 mg/kg/dose, Q1D × 5 (1)
[15] = P388/0, IP 135.0 mg/kg/dose, Q1D × 5 (1)
[16] = P388/L-PAM, IP 60.0 mg/kg/dose, Q1D × 5 (1)
[17] = P388/L-PAM, IP 90.0 mg/kg/dose, Q1D × 5 (1)
[18] = P388/L-PAM, IP 135.0 mg/kg/dose, Q1D × 5 (1)
[19] = P388/BCNU, IP 60.0 mg/kg/dose, Q1D × 5 (1)
[20] = P388/BCNU, IP 90.0 mg/kg/dose, Q1D × 5 (1)
[21] = P388/BCNU, IP 135.0 mg/kg/dose, Q1D × 5 (1)

## COc1nc(C(Cl)(Cl)Cl)c(Cl)c(OC(C)=O)c1Cl [DM-A-PEN]
Human MX-1 mammary tumor [1]; IP 60 mg/kg/dose (LD20), Days 15-19
  Tumor-Free-Surv/Total: 3/5
Human MX-1 mammary tumor [1]; IP 60 mg/kg/dose, Days 14-18
  Tumor-Free-Surv/Total: 4/5
Human MX-1 mammary tumor [1]; IP 60 mg/kg/dose, Days 15-19
  Dose (mg/kg) with observed lethality level: 60 (LD20)
Human MX-1 mammary tumor [1]; IP 90 mg/kg/dose, Days 12-16
  T-C: >41.0 days
  Tumor-Free-Surv/Total: 5/5
Human MX-1 mammary tumor [1]; oral (gavage) 135 mg/kg/dose, Days 13-17
  Tumor-Free-Surv/Total: 5/5
Human MX-1 mammary tumor [2]; IP 60 mg/kg/dose
  Median % ILS (dying mice only): +60%
Human MX-1 mammary tumor [2]; oral (gavage) 135 mg/kg/dose
  Median % ILS (dying mice only): +88%
[3]; s.c.-implanted ZR-75-1 human mammary tumor
  activity (in words): moderate to modest activity
[3]; IP 60 mg/kg/dose, Days 10-14
  Tumor-Free-Surv/Total: 0/5
[3]; IP 90 mg/kg/dose, Days 8-12
  Tumor-Free-Surv/Total: 0/5
MCF7 human mammary tumor; s.c.-implanted MCF7 human mammary tumor
  activity (in words): moderate to modest activity
MCF7 human mammary tumor; [7]
  T-C: 7.1 days
  Tumor-Free-Surv/Total: 0/5
[4]
  T-C: -2.4 days
  Tumor-Free-Surv/Total: 0/5
HT29 human colon tumor; s.c.-implanted HT29 human colon tumor
  activity (in words): moderate to modest activity
HT29 human colon tumor; [8]
  T-C: 5.8 days
  Tumor-Free-Surv/Total: 0/5
[5]; s.c.-implanted NCI-H82 small cell lung tumor
  activity (in words): moderate to modest activity
[5]; [9]
  T-C: 7.2 days
  Tumor-Free-Surv/Total: 0/5
[6]
  T-C: -0.6 days
  Tumor-Free-Surv/Total: 0/5
U251 human CNS tumor; s.c.-implanted U251 human CNS tumor
  activity (in words): moderate to modest activity
U251 human CNS tumor; sc U251, IP 90 mg/kg/dose, Days 19-23
  Tumor-Free-Surv/Total: 0/5
SF-295 CNS tumor
  T-C: 0.7 days
  Tumor-Free-Surv/Total: 0/5
CAKI-1 human renal tumor; s.c.-implanted CAKI-1 human renal tumor
  activity (in words): moderate to modest activity
CAKI-1 human renal tumor; [10]
  T-C: 8.4 days
  Tumor-Free-Surv/Total: 0/5
OVCAR-5 ovarian tumor
  T-C: 4.0 days
  Tumor-Free-Surv/Total: 0/5
SK-MEL-28 melanoma
  T-C: 0.7 days
  Tumor-Free-Surv/Total: 0/5
P388/CPA leukemia; IP 60.0 mg/kg/dose
  50-DAY SURV/TOTAL: 0/6
  % ILS: +54%
  APPROX. NET LOG10 CHANGE IN TUMOR BURDEN AT END OF Rx: −1.1
  MEDIAN DAY OF DEATH: 17.0
P388/CPA leukemia; IP 90.0 mg/kg/dose
  50-DAY SURV/TOTAL: 0/6
  % ILS: +86%
  APPROX. NET LOG10 CHANGE IN TUMOR BURDEN AT END OF Rx: −3.1
P388/CPA leukemia; IP 135.0 mg/kg/dose
  50-DAY SURV/TOTAL: 0/6
  APPROX. NET LOG10 CHANGE IN TUMOR BURDEN AT END OF Rx: −5.7
  MEDIAN DAY OF DEATH: 25.0
P388/CPA leukemia; [11]
  more active than DM-PEN against P388/CPA (difference in log cell kill): 4.6 log cell kill
P388/CPA leukemia; [12]
  more active than PEN against P388/CPA (difference in log cell kill): 7.4 log cell kill
P388/0 leukemia; [13]
  50-DAY SURV/TOTAL: 0/6
  % ILS: +72%
  APPROX. NET LOG10 CHANGE IN TUMOR BURDEN AT END OF Rx: −3.1
P388/0 leukemia; P388/0, IP 60.0 mg/kg/dose, Q1D × 5 (1), dying mice only
  MEDIAN DAY OF DEATH: 19.0
P388/0 leukemia; [14]
  50-DAY SURV/TOTAL: 0/6
  % ILS: +95%
  APPROX. NET LOG10 CHANGE IN TUMOR BURDEN AT END OF Rx: −5.0
P388/0 leukemia; [15]
  50-DAY SURV/TOTAL: 0/6
  % ILS: +159%
  APPROX. NET LOG10 CHANGE IN TUMOR BURDEN AT END OF Rx: ~−6.8
  Toxicity / lethality level at the dosage (LD): LD33
P388/0 leukemia; [11]
  more active than DM-PEN against P388/O (difference in log cell kill): 1.9 log cell kill
P388/0 leukemia; [12]
  more active than PEN against P388/0 (difference in log cell kill): 0.4 log cell kill
P388/L-PAM leukemia; [16]
  50-DAY SURV/TOTAL: 0/6
  % ILS: +14%
  APPROX. NET LOG10 CHANGE IN TUMOR BURDEN AT END OF Rx: +1.2
  MEDIAN DAY OF DEATH: 18.0
P388/L-PAM leukemia; [17]
  50-DAY SURV/TOTAL: 0/6
  % ILS: +14%
  APPROX. NET LOG10 CHANGE IN TUMOR BURDEN AT END OF Rx: +1.2
  MEDIAN DAY OF DEATH: 18.0
P388/L-PAM leukemia; [18]
  50-DAY SURV/TOTAL: 0/6
  % ILS: +35%
  APPROX. NET LOG10 CHANGE IN TUMOR BURDEN AT END OF Rx: −0.8
  Toxicity / lethality level at the dosage (LD): LD17
  MEDIAN DAY OF DEATH: 19.0
P388/L-PAM leukemia; highest nontoxic doses evaluated, versus PEN or DM-PEN
  more active than PEN or DM-PEN against P388/L-PAM (difference in log cell kill): 0.2-0.3 log cell kill
P388/L-PAM leukemia; mouse, in vivo
  activity in the P388/L-PAM tumor model (in words): none of the three showed significant activity
P388/BCNU leukemia; [19]
  50-DAY SURV/TOTAL: 1/6
  % ILS: +44%
  APPROX. NET LOG10 CHANGE IN TUMOR BURDEN AT END OF Rx: 0
  MEDIAN DAY OF DEATH: 13.0
P388/BCNU leukemia; [20]
  50-DAY SURV/TOTAL: 0/6
  % ILS: +77%
  APPROX. NET LOG10 CHANGE IN TUMOR BURDEN AT END OF Rx: −2.3
  MEDIAN DAY OF DEATH: 16.0
P388/BCNU leukemia; [21]
  50-DAY SURV/TOTAL: 0/6
  APPROX. NET LOG10 CHANGE IN TUMOR BURDEN AT END OF Rx: −4.1
  Toxicity / lethality level at the dosage (LD): LD17
  MEDIAN DAY OF DEATH: 21.0
P388/BCNU leukemia; [11]
  more active than DM-PEN against P388/BCNU (difference in log cell kill): 1.5 log cell kill
P388/BCNU leukemia; [12]
  more active than PEN against P388/BCNU (difference in log cell kill): 3.5 log cell kill
